Results on five compounds are retold here after the NIST ThermoML archive (doi:10.1021/je800896m).

For this data set the following is noted: Liquid, Closed cell (Static) method.

Where “and” joins values, the source holds several entries; their conditions need not be identical. Equal entries are not always repeated. ± gives the expanded uncertainty stated by the source.

Usually vapor or sublimation pressure stands for the equilibrium pressure above the liquid or solid. In the case of `CC(C)C` [2-methylpropane], the “vapor or sublimation pressure” value is, setting by setting: (318.34 K) 608.3 ± 2.1 kPa; (346.96 K) 1177.5 ± 3.7 kPa.
As to `C=C(C)C` [2-methylpropene], the “vapor or sublimation pressure” value runs as follows: (318.35 K) 542.1 ± 1.9 kPa; (346.14 K) 1054.9 ± 3.4 kPa.
Turning to `C/C=C/C` [(E)-2-butene], the “vapor or sublimation pressure” value (318.34 K) is 423.5 ± 1.6 kPa and the “vapor or sublimation pressure” value (347.06 K) is recorded as 868.5 ± 2.8 kPa.
Take `CCCC` [butane]: the “vapor or sublimation pressure” value stood at 437.5 ± 1.6 kPa (318.35 K) and 881.7 ± 2.8 kPa (346.97 K).
With `C1CCSC1` [tetrahydrothiophene], the “vapor or sublimation pressure” value by setting is: (318.34 K) 7.3 ± 0.8 kPa; (318.35 K) 6.9 ± 0.8 kPa and 6.7 ± 0.8 kPa; (346.14 K) 21.4 ± 0.8 kPa; (346.97 K) 22.2 ± 0.8 kPa and 22.5 ± 0.8 kPa; (347.07 K) 22.2 ± 0.8 kPa.
